{"source": "patent US12564596B2", "about": "“Agents and methods for modulating pathogen activity” (Griffith University, priority 2018, dated 2026)", "key": {"[1]": {"tested_on": "HIV strains NL4-3 and NLAD8 adherence to CHO-CR3 cells", "assay": "Fluorometric adherence assay, HIV to CHO cells", "type": "cell-based", "procedure": "To test the ability of HIV to bind to CHO cells in a CR3 dependent fashion, and to test the ability of carbamazepine to block adherence of HIV to CHO-CR3 or CHO-neo cells, a fluorometric adherence assay was used, essentially as described by Jen et al (2013, supra). In this regard, CHO-neo or CHO-CR3 cells were seeded to a 96-well plate and allowed to grow to confluence. Fluorescently labelled HIV (10 ng of p24 HIV capsid protein equivalent of HIV in 100 μL of F12 culture media) were then used to challenge (2 h) CHO cells simultaneously with, or without, various concentrations of carbamazepine (as noted). Fluorescence (485/528 nm) intensity, corresponding to HIV cell adherence, was recorded using a Synergy HT Multi-mode Microplate Reader (BioTek Instruments, Winooski, VT USA). […] A Kruskal-Wallis k-sample analysis of variance was used to determine the statistical significance of the calculated mean of viral-cell adherence.\nHaving established the CR3-dependent binding of HIV to CHO cells, the inventors next examined the ability of carbamazepine to block the interaction of HIV strains NL4-3 and NLAD8 with the CR3 I-domain using fluorometric adherence assays. CR3-expressing (CHO-CR3) and non-expressing (CHO-neo) CHO cells, were seeded to microtiter plates, and HIV adherence was quantitated fluorometrically, as described by Jen et al. (2013, supra). […]"}, "[2]": {"tested_on": "N. gonorrhoeae adherence to primary human cervical epithelial (PEX) cells", "assay": "Fluorometric adherence assay, gonococci to PEX cells", "type": "cell-based, Neisseria gonorrhoeae", "source_text": "Briefly, six N. gonorrhoeae strains were used in the experiments. These included the laboratory strain, MS11; the low-passage isolates, 1291, UT38097, LT38885, PID-26, and SK92-679; all of which were transformed with the green fluorescent protein (GFP) expression plasmid, pCmGFP (GenBank accession number FJ172221) Srikhanta et al (2009, PLoS Pathog. 5(4):e1000400) and, thus, expressed GFP Edwards et al (2000, Infect Immun 68(9):5354-63). […] The ability of carbamazepine to block the adherence of N. gonorrhoeae to human, primary cervical epithelial (PEX) cells was evaluated using a fluorometric adherence assay. Assays were performed essentially as described by Jen et al (2013, supra). In this regard, PEX cells were seeded to a 96-well plate and allowed to grow to confluence. Gonococci were then used to challenge (1 h) PEX cells simultaneously with, or without, various concentrations of carbamazepine ([…], 10 nM, 1 μM, or 100 μM, as noted) or 1% DMSO (vehicle control). Uninfected PEX cells treated with 1% DMSO served as a control for background fluorescence. Fluorescence (485/528 nm) intensity, corresponding to bacterial adherence, was recorded using a Synergy HT Multi-mode Microplate Reader (BioTek Instruments, Winooski, VT USA). The assay was performed in triplicate on 3 separate occasions. A Student's t-test was used to determine the statistical significance of the calculated mean of bacterial adherence.\nThe ability of the compounds, or negative controls to block adherence of N. gonorrhoeae strain MS11gfp to PEX cells, CHO-CR3, or CHO-neo cells was evaluated using a fluorometric microtiter plate assay. Assays were performed essentially as described by Jen et al. (2013, Plos Pathog 9(5): e1003377). In this regard, GFP-expressing gonococci were used to challenge (1 h) PEX or CHO cells immediately following compound addition. Fluorescence (485/528 nm) intensity, corresponding to bacterial adherence, was recorded using a Synergy HT Multi-mode Microplate Reader (BioTek Instruments, Winooski, VT USA). Blank wells, devoid of PEX or CHO cells, also were inoculated with bacteria and served as a control for non-specific binding. The assay was performed in triplicate on 3 separate occasions. A Student's t-test was used to determine the statistical significance of the calculated mean of bacterial adherence."}, "[3]": {"target": "T1, N. gonorrhoeae MS11 pilin interaction with human rI-domain (Homo sapiens, UniProt P11215)", "T1 construct": "was performed with human rI-domain immobilized on a CM5 sensor chip surface; made in house", "T1 sequence (P11215 150-328)": "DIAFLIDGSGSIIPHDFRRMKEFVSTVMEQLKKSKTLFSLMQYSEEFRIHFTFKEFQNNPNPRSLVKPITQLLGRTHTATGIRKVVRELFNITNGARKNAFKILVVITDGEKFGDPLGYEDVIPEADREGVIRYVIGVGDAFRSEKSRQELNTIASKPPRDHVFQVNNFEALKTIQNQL", "assay": "SPR 1:1 competition assay, MS11 pilin binding to rI-domain", "procedure": "To determine if drugs with high affinity interactions with the human rI-domain could inhibit the interaction with MS11 pilin or HIV, competition assay between primary T-cell derived WITO HIV and N. gonorrhoeae MS11 pilin and the drugs were performed as described Mubaiwa et al (2017, Sci Rep. 7(1):5693). Competition analysis SPR of N. gonorrhoeae MS11 pilin and human rI-domain interaction was performed with human rI-domain immobilized on a CM5 sensor chip surface (low immobilization—˜3500 RU compared to ˜14000 RU for initial screening and KD calculations). N. gonorrhoeae MS11 purified pilin, drug or drug and pilin were flowed at 100 nM over the I-domain and the response units of the interactions were recorded."}}, "data": [{"compound": "NC(=O)N1c2ccccc2C=Cc2ccccc21", "note": "[carbamazepine, 5H-dibenzo[b,f]azepine-5-carboxamide]", "values": [{"measurement": "HIV adherence to CHO-CR3 cells compared with CHO-neo cells", "setting": "[1]; 1 μM, 2 h post-challenge", "value": "not significantly different than that recorded for CHO-neo cells"}, {"measurement": "HIV adherence to CHO-CR3, but not CHO-neo, cells with increasing concentrations", "setting": "[1]; 2 h", "value": "dose-dependent decrease"}, {"measurement": "gonococcal adherence to PEX cells with increasing concentrations", "setting": "[2]; 1 h post-challenge", "value": "dose-dependent decrease"}, {"measurement": "inhibition at 1 µM", "setting": "[2]; Neisseria gonorrhoeae, 1 h, read-out: inhibition of adherence to PEX cells", "value": "> 95", "unit": "%"}, {"measurement": "inhibition at 0.1 µM", "setting": "[3]; 1:1 competition, 100 nM", "value": "~99", "unit": "%"}, {"measurement": "% inhibition", "setting": "[3]; 1:1 competition, 100 nM, 0.1 µM", "value": 98.97, "unit": "%"}, {"measurement": "Block MS11 pilin in SPR", "setting": "[3]; direct competition SPR", "value": "Yes"}, {"measurement": "Drug RU", "setting": "[3]; drug alone flowed at 100 nM over immobilized rI-domain", "value": 4.358, "unit": "RU"}, {"measurement": "Pilin + Drug RU", "setting": "[3]; drug and pilin flowed at 100 nM, 1:1", "value": 4.675, "unit": "RU"}]}]}
